# Test: Waters Atlantis T3, 100 × 2.1 mm, 3 µm, 0.1 mL/min, estimated dead time 2.2 min; A: water + 0.01% formic acid; B: methanol + 0.01% formic acid; gradient (min/%B) 0/5 3/5 20/100 29/100
# Conditions: stereoisomer not certain
row,LC retention time [min],SMILES
1,14.6,CN1CCN2c3ncccc3Cc3ccccc3C2C1 (stereo unspecified)
2,17.6,CCC1OC(=O)CC(O)C(C)C(OC2OC(C)C(OC3CC(C)(O)C(O)C(C)O3)C(N(C)C)C2O)C(CC=O)CC(C)C(=O)C=CC(C)=CC1COC1OC(C)C(O)C(OC)C1OC (stereo unspecified)
3,15.2,Cn1c(=O)c2c(ncn2C)n(C)c1=O
4,11.5,CN=C(NC#N)NCCSCc1nc[nH]c1C
5,17.6,Cc1nnc(SCC2=C(C(=O)O)N3C(=O)C(NC(=O)Cn4cnnn4)C3SC2)s1 (stereo unspecified)
6,11.3,CC(C)NCC(O)COc1ccc(CC(N)=O)cc1 (stereo unspecified)
7,17.6,CN(C)CCCN1c2ccccc2CCc2ccccc21
8,16.7,CN(C)CCC=C1c2ccccc2COc2ccccc21
9,14.6,Cc1noc(NS(=O)(=O)c2ccc(N)cc2)c1C
10,11.8,CC1=C(C(=O)O)N2C(=O)C(NC(=O)C(N)c3ccc(O)cc3)C2SC1 (stereo unspecified)
11,13.3,Cc1ncc([N+](=O)[O-])n1CCO
12,17.3,C=CC1(C)CC(OC(=O)CSCCN(CC)CC)C2(C)C(C)CCC3(CCC(=O)C32)C(C)C1O (stereo unspecified)
13,21.8,CC(C(=O)O)c1cccc(C(=O)c2ccccc2)c1 (stereo unspecified)
14,12.9,COc1cc(Cc2cnc(N)nc2N)cc(OC)c1OC
15,27.1,CCC(C)(C)C(=O)OC1CC(C)C=C2C=CC(C)C(CCC3CC(O)CC(=O)O3)C21 (stereo unspecified)
16,11.2,COCCc1ccc(OCC(O)CNC(C)C)cc1 (stereo unspecified)
17,17.9,CN(C)CCC=C1c2ccccc2CCc2ccccc21

row,LC retention time [min],SMILES
1,13.4,CCN(CC)CC(=O)Nc1c(C)cccc1C
2,24.4,CCCCC(=O)N(Cc1ccc(-c2ccccc2-c2nn[nH]n2)cc1)C(C(=O)O)C(C)C (stereo unspecified)
3,20.6,CC12CCC(=O)C=C1CCC1C2C(O)CC2(C)C1CCC2(O)C(=O)CO (stereo unspecified)
4,13.2,Cn1c([N+](=O)[O-])cnc1COC(N)=O
5,18,CNCCC=C1c2ccccc2CCc2ccccc21
6,21.4,CC1CC2C(C(O)CC3(C)C2CCC3(O)C(=O)CO)C2(C)C=CC(=O)C=C12 (stereo unspecified)
7,18.7,COc1ccc2nc(S(=O)Cc3ncc(C)c(OC)c3C)[nH]c2c1 (stereo unspecified)
8,17.1,CCC1(c2ccccc2)C(=O)NCNC1=O
9,20,CC12CCC(=O)C=C1CCC1C2C(=O)CC2(C)C1CCC2(O)C(=O)CO (stereo unspecified)
10,11.2,CC1(C)SC2C(NC(=O)C(N)c3ccc(O)cc3)C(=O)N2C1C(=O)O (stereo unspecified)
11,20.2,NC(=O)N1c2ccccc2C=Cc2ccccc21
12,12.6,Cc1cc2c(s1)Nc1ccccc1N=C2N1CCN(C)CC1
13,13.3,CC(=O)Nc1ccc(O)cc1
14,16.2,CC(C)NCC(O)COc1cccc2ccccc12 (stereo unspecified)
15,11.8,CC1=C(C(=O)O)N2C(=O)C(NC(=O)C(N)c3ccccc3)C2SC1 (stereo unspecified)
16,11.4,CNC(=C[N+](=O)[O-])NCCSCc1ccc(CN(C)C)o1

# The remaining lines, values behind:
row,SMILES,LC retention time [min]
1,CCC(C(N)=O)N1CCCC1=O (stereo unspecified),13.7
2,CCC1OC(=O)C(C)C(OC2CC(C)(OC)C(O)C(C)O2)C(C)C(OC2OC(C)CC(N(C)C)C2O)C(C)(O)CC(C)CN(C)C(C)C(O)C1(C)O (stereo unspecified),18.7
3,CCNC(C)Cc1ccc2c(c1)OCO2 (stereo unspecified),13.4
4,CCOP(=O)(Sc1ccccc1)Sc1ccccc1,16.2
5,CC(=O)OC1C=CC2C3Cc4ccc(O)c5c4C2(CCN3C)C1O5 (stereo unspecified),12.5
6,CC(N)Cc1ccc2c(c1)OCO2 (stereo unspecified),12.9
7,CN(C)C1C(=O)C(C(N)=O)=C(O)C2(O)C(=O)C3=C(O)c4c(O)cccc4C(C)(O)C3CC12 (stereo unspecified),14.5
8,CC(N)Cc1ccccc1 (stereo unspecified),12.6
9,CCC(=O)C(CC(C)N(C)C)(c1ccccc1)c1ccccc1 (stereo unspecified),17.6
10,CNC(C)Cc1ccccc1 (stereo unspecified),12.8
11,CN1C2CCC1C(C(=O)O)C(OC(=O)c1ccccc1)C2 (stereo unspecified),15.7
12,CC1(C)OC2COC3(COS(N)(=O)=O)OC(C)(C)OC3C2O1 (stereo unspecified),18.3
13,COC(=O)C1C(OC(=O)c2ccccc2)CC2CCC1N2C (stereo unspecified),14.3
14,CN(C)C1C(=O)C(C(N)=O)=C(O)C2(O)C(=O)C3=C(O)c4c(O)cccc4C(C)(O)C3C(O)C12 (stereo unspecified),14.8
15,COc1ccc(C(CN(C)C)C2(O)CCCCC2)cc1 (stereo unspecified),15.7
16,COc1ccc2c3c1OC1C(=O)CCC4(O)C(C2)N(C)CCC314 (stereo unspecified),12.1
17,CN1CCC23c4c5ccc(O)c4OC2C(O)C=CC3C1C5 (stereo unspecified),9.52

row,SMILES,LC retention time [min]
1,COC12CCC3(CC1C(C)(O)C(C)(C)C)C1Cc4ccc(O)c5c4C3(CCN1CC1CC1)C2O5 (stereo unspecified),16.8
2,CC(N)C(O)c1ccccc1 (stereo unspecified),10.9
3,COc1ccc2c3c1OC1C(O)C=CC4C(C2)N(C)CCC341 (stereo unspecified),11.8
4,CC(=O)C1CCC2C3CCC4=CC(=O)CCC4(C)C3CCC12C (stereo unspecified),24.8
5,CCC1OC(=O)C(C)C(OC2CC(C)(OC)C(O)C(C)O2)C(C)C(OC2OC(C)CC(N(C)C)C2O)C(C)(OC)CC(C)C(=O)C(C)C(O)C1(C)O (stereo unspecified),18.7
6,COc1cccc(C2(O)CCCCC2CN(C)C)c1 (stereo unspecified),14.2
7,CNC(C)C(O)c1ccccc1 (stereo unspecified),11.7
8,O=C1CN=C(c2ccccc2)c2cc([N+](=O)[O-])ccc2N1,20.4
9,CN1CCN2c3ncc(O)cc3Cc3ccccc3C2C1 (stereo unspecified),13.6
10,CCN(CC)C(=O)C1C=C2c3cccc4[nH]cc(c34)CC2N(C)C1 (stereo unspecified),15.1
11,CCOc1cc(OC)c(OCC)cc1CC(C)N (stereo unspecified),3.15
12,CN(C)C(=N)N=C(N)N,3.04
13,CCn1cc(C(=O)O)c(=O)c2cc3c(cc21)OCO3,18.3
14,CNC(C)Cc1ccc2c(c1)OCO2 (stereo unspecified),13
15,CCCCCc1cc(O)c2c(c1C(=O)O)OC(C)(C)C1CCC(C)=CC21 (stereo unspecified),26.9
16,CC(=O)Oc1ccc2c3c1OC1C(OC(C)=O)C=CC4C(C2)N(C)CCC341 (stereo unspecified),14.1

# Source: the RepoRT retention time repository (doi:10.1007/s00216-015-8540-6)
